In patent US20050238589A1, “Methods and compositions for preventing or treating periodontal diseases” (priority 2004, published 2005):

Columns and labels:
[1] = tested on: COX-derived eicosanoids in crevicular fluid; conditions: cited from earlier work
[2] = tested on: CF-PGE2 levels; conditions: in humans; cited from earlier work
[3] = tested on: PGE2 generation from gingival homogenates; conditions: ElAttar et al. 1984; cited from earlier work
[4] = tested on: P. gingivalis and ligature-induced experimental periodontitis; assay: Radiographic analysis (Bjorn technique) in rabbit experimental periodontitis; assay type: in vivo, New Zealand White rabbits
[5] = tested on: P. gingivalis and ligature-induced experimental periodontitis; assay: Morphometric analysis of mandibles in rabbit experimental periodontitis; assay type: in vivo, New Zealand White rabbits; conditions: topical resolvin E1 before P. gingivalis application, every other day for 6 weeks; versus vehicle (ethanol)
[6] = tested on: P. gingivalis and ligature-induced experimental periodontitis; assay: Histological analysis (HE) in rabbit experimental periodontitis; assay type: in vivo, New Zealand White rabbits; conditions: topical application; rabbits with P. gingivalis and ligature placement
[7] = p<0.05 for vehicle group compared to resolvin E1 or ligature alone

| Structure (SMILES) | CF-PGE2 levels, gingival inflammation, tooth attachment loss and bone loss ([1]; Pauletto et al. 1997, in some cases bone gain) | COX-derived eicosanoids in crevicular fluid (CF) ([1]; animals taking flurbiprofen) | CF-PGE2 levels [2] | PGE2 generation from gingival homogenates [3] | percentage of bone loss calculated by the Bjorn technique (FIG. 5) [4, 7] | percentage of tooth in bone measured on radiographs (FIG. 4) [4, 7] | bone loss, radiographic appearance of alveolar bone (FIG. 3) ([4]; topical application, bone at the same level as ligature alone) | bone destruction (defleshed bone specimens, FIG. 1) [5] | gingival inflammation (gingival tissue of mandibles, FIG. 1) [5] | bone loss, histology (FIG. 6) [6] | inflammatory changes, histology (FIG. 6) [6] |
| --- | --- | --- | --- | --- | --- | --- | --- | --- | --- | --- | --- |
| CC(C(=O)O)c1ccc(-c2ccccc2)c(F)c1 (centres unmarked) [flurbiprofen] | reduced | decreased | dramatically decreased | significantly inhibited | – | – | – | – | – | – | – |
| CC[C@@H](O)/C=C/C=C\C[C@@H](O)/C=C/C=C/C=C\[C@@H](O)CCCC(=O)O [resolvin E1] | – | – | – | – | prevents the destructive effects | maintenance of bone levels | prevented the bone loss | prevented | prevented | prevented | prevented |
